Test results published in patent US7838515B2, “Formulations of quaternary ammonium neuromuscular blocking agents” (Lyotropic Therapeutics, Inc., priority 2005, dated 2010).
Like-named read-outs stand apart in the source and are kept apart here.

What was measured:
[1] = cited from earlier work
[2] = HPLC stability of vecuronium bromide solutions with anionic additives (Example 1); assay type: physicochemical
Procedure: HPLC System was a Shimadzu VP Series that consists of the following components: SPD-M10A—Diode Array Detector; SIL-10AD—Autosampler; LC-10AT—Pump; SCL-10A—Controller; and Shimadzu EZ Start Version 7.2 SP 1 Revision B—Software.
In this Example a number of anionic compounds, with various pKa's and carbon numbers, were compared for their ability to stabilize vecuronium in solution.
The following chart gives the compositions that were prepared and examined by HPLC for stability over time. Each sample contained approximately 1 mg/mL vecuronium bromide. […] All numerical entries in the chart are actual recorded weights in grams: […]

twitch response = conditions: 0.08 to 0.1 mg/Kg, balanced anesthesia; cited from earlier work
[3] = Shelf-life of vecuronium bromide control solutions (HPLC, 15% potency lost); assay type: physicochemical; conditions: for shelf-life of solution: 1 mg/ml in water, point at which 15% of potency is lost
Excerpt: In the Examples below, where HPLC assay results for vecuronium are reported, the following gives the parameters of the HPLC measurement. HPLC System was a Shimadzu VP Series that consists of the following components: SPD-M10A—Diode Array Detector; SIL-10AD—Autosampler; LC-10AT—Pump; SCL-10A—Controller; and Shimadzu EZ Start Version 7.2 SP 1 Revision B—Software. Chromatographic Parameters: Mobile Phase—60% Acetonitrile, 25% Methanol, 15% 0.1M TMAH (pH=6.5); Column—25 cm×4.6 mm Phenomenex Luna C18 5 μm; Wavelength—210 nm; Injection Volume—5 μL; Flow Rate—1.0 mL/min; Standard Preparation—1 mg/mL in 0.001N HCl/Methanol; and Sample Preparation—1 mg/mL—Undiluted.
In the case of vecuronium at pH 6 and 25° C., the shelf-life of just under 1 week was recorded for both a maleate-TRIS buffer and an HCl-acidified vecuronium solution.

[4] = Cubic phase-water partitioning of vecuronium (HPLC); assay type: physicochemical
Excerpt: It is this hydrophobic milieu that is central to the invention, in limiting the contact between water and the labile group(s) of the drug.

[5] = 25° C. and 40° C. data of Example 1
[6] = with a charged surfactant (sodium glycocholate)

## CCCCCCCCCCCCCC(=O)OCC(COP(=O)(O)OCC(O)CO)OC(=O)CCCCCCCCCCCCC (stereo not drawn) [DMPG, dimyristoylphosphatidylglycerol]
[1]
  pKa: approx. 3.0
[1]; listed as Dimyristoyl phosphatidylglycerol
  pKa: about 3.0

## CC(=O)N[C@@H](Cc1c[nH]c2ccccc12)C(=O)O [N-acetyltryptophan]
[1]
  pKa: 3.4
[2]; [5]
  effect of the additive on vecuronium solution stability (in words): performed very poorly at the higher temperature

## CC(=O)O[C@H]1C[C@@H]2CC[C@@H]3[C@H](CC[C@@]4(C)[C@H]3C[C@H]([N+]3(C)CCCCC3)[C@@H]4OC(C)=O)[C@@]2(C)C[C@@H]1N1CCCCC1 [Vecuronium, vecuronium bromide]
Twitch response
  time to first depression of twitch response: approximately 1 minute
[3]; pH 6.0, 4° C.
  shelf-life of solution: 5 weeks
[3]; pH 6.0, 25° C.
  shelf-life of solution: 1 week
[3]; control solution at same pH (5.2) and temperature (25° C.)
  time until potency is reduced to 85% of initial: about 2 weeks
[3]; pH 6, 25° C., both maleate-TRIS buffer and HCl-acidified solution
  shelf-life: under 1 week
[4]; [6]
  KQW (cubic-water partition coefficient): 10,000
  concentration in the aqueous phase: 1 µg/mL
  concentration in the cubic phase: 10600 µg/mL
  log KQW: +4
[4]; without a charged surfactant
  KQW (cubic-water partition coefficient): 1,667
  concentration in the aqueous phase: 6 µg/mL
  concentration in the cubic phase: 10000 µg/mL
  log KQW: +3.2

## O=S(=O)(O)c1ccccc1 [benzenesulfonic, benzenesulfonic acid]
[2]
  effect of the additive on vecuronium solution stability (in words): most stable solutions

## C[C@H](CCC(=O)O)[C@H]1CC[C@H]2[C@@H]3CC[C@@H]4C[C@H](O)CC[C@]4(C)[C@H]3C[C@H](O)[C@]12C [deoxycholic acid]
[1]
  pKa: about 5.7

## O=C(O)c1cc(O)ccc1O [gentisic, gentisic acid]
[2]
  effect of the additive on vecuronium solution stability (in words): most stable solutions

## C[C@H](CCC(=O)NCC(=O)O)[C@H]1CC[C@H]2[C@@H]3[C@H](O)C[C@@H]4C[C@H](O)CC[C@]4(C)[C@H]3C[C@H](O)[C@]12C [glycocholic, glycocholic acid]
[1]
  pKa: approximately 3.5
[1]; listed as glycocholate
  pKa: 3.5

## O=C(O)/C=C\C(=O)O [maleic]
[1]
  pKa: 3.9

## CCCCCCCC(=O)O [octanoic, Octanoic acid]
[2]; [5]
  effect of the additive on vecuronium solution stability (in words): equally bad

## O=C1NS(=O)(=O)c2ccccc21 [saccharin]
[1]
  pKa: 2.0
[2]
  effect of the additive on vecuronium solution stability (in words): most stable solutions

## Cc1ccc(S(=O)(=O)O)cc1 [toluenesulfonic, toluenesulfonic acid]
[2]
  effect of the additive on vecuronium solution stability (in words): most stable solutions
